Measured values as given in ChEMBL document CHEMBL1799958, “Aminoalkylcarbamoylphosphonates reduce TNFα release from activated immune cells” (Bioorg Med Chem Lett, 2010).
The source made the active and inactive calls. The calls are words filed in the database; no cut-off is given here.

Tests used:
[1] = Cytotoxicity against LPS-stimulated splenocytes isolated from thioglycolate-stimulated C57BL/6 mouse assessed as alterations in forward and side scattering distribution for splenocytes using propidium iodide-staining after 24 hrs by FACS analysis; assay type: cell-based; conditions: splenocyte
[2] = Toxicity in LPS-stimulated splenocytes cells isolated from thioglycolate-stimulated C57BL/6 mouse assessed as decrease in live cells at 100 uM after 24 hrs using propidium iodide-staining by FACS analysis; assay type: cell-based; conditions: splenocyte
[3] = target: Disintegrin and metalloproteinase domain-containing protein 17 (Homo sapiens) (UniProt P78536); assay: Inhibition of recombinant TACE using Mca-P-L-A-Q-A-V-Dpa-R-S-S-S-R-NH2 as substrate at 1 to 100 uM after 3 hrs by fluorescence assay
Chain of Disintegrin and metalloproteinase domain-containing protein 17 (Homo sapiens) (P78536 whole entry, the tested form may be a part): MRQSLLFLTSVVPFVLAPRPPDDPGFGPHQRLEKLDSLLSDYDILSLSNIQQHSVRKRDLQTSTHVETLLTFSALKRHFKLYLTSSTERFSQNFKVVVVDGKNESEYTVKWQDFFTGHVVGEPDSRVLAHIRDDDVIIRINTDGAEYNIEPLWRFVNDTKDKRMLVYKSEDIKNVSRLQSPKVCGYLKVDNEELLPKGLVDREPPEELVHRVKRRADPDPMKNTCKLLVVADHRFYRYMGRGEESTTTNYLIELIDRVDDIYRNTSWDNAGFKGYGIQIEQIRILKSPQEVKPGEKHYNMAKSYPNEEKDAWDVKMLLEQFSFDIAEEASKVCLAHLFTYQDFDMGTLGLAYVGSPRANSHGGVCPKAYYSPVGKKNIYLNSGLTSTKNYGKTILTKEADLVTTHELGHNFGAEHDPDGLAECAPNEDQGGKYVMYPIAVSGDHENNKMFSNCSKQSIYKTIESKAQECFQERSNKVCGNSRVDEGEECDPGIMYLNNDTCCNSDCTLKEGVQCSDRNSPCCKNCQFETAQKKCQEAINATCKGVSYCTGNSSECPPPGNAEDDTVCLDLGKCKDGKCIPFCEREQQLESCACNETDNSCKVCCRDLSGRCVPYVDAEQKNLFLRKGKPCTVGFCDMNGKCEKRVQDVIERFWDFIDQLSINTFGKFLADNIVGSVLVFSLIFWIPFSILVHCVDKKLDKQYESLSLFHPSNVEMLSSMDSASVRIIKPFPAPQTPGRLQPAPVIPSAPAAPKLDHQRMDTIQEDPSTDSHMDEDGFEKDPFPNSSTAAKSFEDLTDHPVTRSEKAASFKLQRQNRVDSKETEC

[4] = tested on: RAW264.7; assay: Toxicity in LPS-stimulated […] assessed as decrease in live cells at 100 uM using propidium iodide-staining by FACS analysis; assay type: cell-based; conditions: raw264.7, 100 µM
[5] = Cytotoxicity against splenocytes isolated from thioglycolate-stimulated C57BL/6 mouse at 10 to 100 uM after 2 hrs by MTT assay; assay type: cell-based; conditions: splenocyte
[6] = tested on: RAW264.7; assay: Cytotoxicity against […] assessed as effect on cell viability at 100 uM after 2 hrs by MTT assay; assay type: cell-based; conditions: raw264.7, 2 h
[7] = Toxicity in LPS-stimulated splenocytes cells isolated from thioglycolate-stimulated C57BL/6 mouse assessed as decrease in live cells at 100 uM after 48 hrs using propidium iodide-staining by FACS analysis; assay type: cell-based; conditions: splenocyte
[8] = tested on: Splenocyte; assay: Antiinflammatory activity against LPS-stimulated splenocytes isolated from thioglycolate-stimulated C57BL/6 mouse at 10 to 100 uM after 24 hrs by ELISA relative to control; assay type: functional, cell-based
[9] = tested on: RAW264.7; assay: Antiinflammatory activity against LPS-stimulated […] at 100 uM after 24 hrs by ELISA relative to control; assay type: functional; conditions: RAW264.7, 24 h
[10] = Cytotoxicity against LPS-stimulated splenocytes isolated from thioglycolate-stimulated C57BL/6 mouse assessed as alterations in forward and side scattering distribution for splenocytes using propidium iodide-staining after 48 hrs by FACS analysis; assay type: cell-based; conditions: splenocyte
[11] = Antiinflammatory activity against LPS-stimulated splenocytes cells isolated from thioglycolate-stimulated C57BL/6 mouse assessed as reduction of TNFalpha mRNA level at 100 to 200 uM after 24 hrs by RT-PCR; assay type: functional, Splenocyte
[12] = tested on: Splenocyte; assay: Antiinflammatory activity against LPS-stimulated splenocytes isolated from thioglycolate-stimulated C57BL/6 mouse at 10 uM after 24 hrs by ELISA relative to control; assay type: functional, cell-based
[13] = tested on: RAW264.7; assay: Cytotoxicity against […] assessed as effect on cell viability at 10 uM after 2 hrs by MTT assay; assay type: cell-based; conditions: raw264.7, 2 h
[14] = tested on: RAW264.7; assay: Antiinflammatory activity against LPS-stimulated […] at 10 uM after 24 hrs by ELISA relative to control; assay type: functional; conditions: RAW264.7, 24 h
[15] = Toxicity in LPS-stimulated splenocytes isolated from thioglycolate-stimulated C57BL/6 mouse assessed as decrease in live cells at 10 uM after 24 hrs using propidium iodide-staining by FACS analysis; assay type: cell-based; conditions: splenocyte
[16] = Cytotoxicity against splenocytes isolated from thioglycolate-stimulated C57BL/6 mouse at 10 uM after 2 hrs by MTT assay; assay type: cell-based; conditions: splenocyte
[17] = Toxicity in LPS-stimulated splenocytes isolated from thioglycolate-stimulated C57BL/6 mouse assessed as decrease in live cells at 10 uM after 48 hrs using propidium iodide-staining by FACS analysis; assay type: cell-based; conditions: splenocyte

SMILES	Activity [1]	Activity [2]	inhibition [3]	Activity [4]	Activity [5]	Activity [6]	Activity [7]	inhibition [8]	inhibition at 100 µM [9] [%]	Activity [10]	inhibition (INH) [11] [%]	inhibition [12]	Activity [13]	inhibition at 10 µM [14] [%]	Activity [15]	Activity [16]	Activity [17]
N[C@H]1CCCC[C@H]1NC(=O)P(=O)(O)O (relative stereo)	Non-toxic	Non-toxic	inactive	Non-toxic	Non-toxic	Non-toxic	Non-toxic	Active	60	Non-toxic	30	–	–	–	–	–	–
O=C(NCCN1CCCC1)P(=O)(O)O	Non-toxic	Non-toxic	inactive	Non-toxic	Non-toxic	Non-toxic	Non-toxic	Active	60	Non-toxic	30	Active	–	–	–	–	–
CCCC1O[C@@H]2C[C@H]3[C@@H]4CCC5=CC(=O)C=C[C@]5(C)[C@H]4[C@@H](O)C[C@]3(C)[C@]2(C(=O)CO)O1 (stereo not given in full) [BUDESONIDE]	–	–	–	–	–	–	–	–	–	–	–	Active	Non-toxic	60	Toxic	Non-toxic	Toxic
O=C(NCCN1CCCCC1)P(=O)(O)O	Non-toxic	Non-toxic	Active	Non-toxic	Non-toxic	Non-toxic	Non-toxic	Active	60	Non-toxic	30	–	–	–	–	–	–
